Experimental data from ChEMBL document CHEMBL1201862, “PubChem BioAssay data set” (2004).
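Exposure lasted 48 hours, with cells grown in 96-well plates and compounds tested at five concentrations. Abbreviation: GI50, concentration required for 50% inhibition of growth.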 Active and inactive are the calls of the source. Rule as the data show it: active = GI50 up to about 1.1 µM and inactive = higher.

Key:
Experiment in all cases: NCI anticancer screen, dose series, 48 h
[1] = test system: CAKI-1
[2] = test system: KM12
[3] = test system: KM-20L2
[4] = test system: NCI-H522
[5] = test system: SW-620
[6] = test system: SK-MEL-5
[7] = test system: MOLT-4
[8] = test system: K562
[9] = test system: OVCAR-3
[10] = test system: RPMI-8226
[11] = test system: ACHN
[12] = test system: U-251
[13] = test system: SN12C
[14] = test system: HOP-62
[15] = test system: EKVX
[16] = test system: CCRF-CEM
[17] = test system: SNB-78

Measured: GI50

CCOC(=O)c1csc(CCCCCCc2nc(C(=O)OCC)cs2)n1
inactive: [1] > 88.7 µM | [2] > 100 µM | [3] > 100 µM | [4] > 100 µM | [5] > 41.7 µM | [6] 41.6 µM | [7] > 75 µM | [8] > 40.1 µM | [9] 99.5 µM | [10] > 48.8 µM | [11] > 84.9 µM | [12] 24 µM | [13] > 82.6 µM | [14] > 57.1 µM | [15] > 86.7 µM | [16] > 42.3 µM | [17] 45.3 µM

C1CN(P2(N3CC3)=NP(N3CC3)(N3CC3)=NP(N3CC3)(N3CC3)=N2)CCO1 (centres undefined) [FOTRETAMINE]
inactive: [1] > 100 µM | [2] > 100 µM | [3] > 100 µM | [4] > 100 µM | [5] > 100 µM | [6] > 100 µM | [7] 8.2 µM | [8] > 77.8 µM | [9] > 100 µM | [10] > 95.7 µM | [11] 37.5 µM | [12] 71.6 µM | [13] > 68.2 µM | [14] 26.6 µM | [15] > 100 µM | [16] 23 µM | [17] > 100 µM
